The text below walks through data of patent publication US20150025077A1 (COYOTE PHARMACEUTICALS, INC., priority 2012, published 2015).

One test deals with Rap1. Description: Prenylation of Rap1 in Neuro2A cells, western blotting. The note with it: 100 nM; with GGTI-298; percentage of control (GGTI only). Type of test: cell-based, mouse. As for the experimental part: Mouse neuroblastoma Neuro2A cells were cultured in DMEM supplemented with 10% FBS for 24 hrs. The cells were treated with 102GGA derivative compounds for 24 hrs first before GGTase inhibitor GGTI-298 was added to the culture medium for additional 24 hr incubation. […] Both un-prenylated and total Rap1 protein bands were quantified using Image J and normalized to their respective loading control GAPDH. The results for control and each compound treatment were calculated as the ratio of normalized un-prenylated Rap1 to total Rap1, and averaged from two biological repeats of one experiment. The final results were presented as a percentage of the control treatments (GGTI only) from the same batch experiment. The data shown in the chart were averaged from two repeats of one experiment and presented as the ratio of normalized un-prenylated Rap1 to total Rapt Compound ID numbers in table refer to structures in Table 1 and Table 2.

A further test has as its system HSP70. As to the kind of experiment: HSP70 levels in Neuro 2a cells, ELISA. Format: cell-based, mouse. The note with it: 48 hrs compound then 24 hrs GGTI-298. As for the experimental part: Mouse neuroblastoma 2a cells were cultured in DMEM with 10% FBS for 24 hrs. […] After 24 hrs cells were harvested and lysates were prepared and analyzed by ELISA for HSP70. Compound ID numbers in table refer to structures in Table 1 and Table 2.
(In an ELISA, binding on a coated surface is turned into a signal by an enzyme label.)

A further test relates to Sprague Dawley rats. Description: Kainic acid stereotactic hippocampus injection model, fraction of cells damaged. The note with it: KA at 72 hours. Type of test: in vivo, rat. How it is done:
CNS-102 was administered orally to Sprague Dawley rats at 12 mg/kg. After dosing, KA was stereotactically injected into the hippocampus at 24, 48, 72, 96 and 168 hours to induce neuron damage. After 24 h, hippocampus tissue was collected, stained, and imaged. The scans were analyzed by Image J to calculate the fraction of cells having KA-induced damage. Average fraction damaged in the hippocampus from ten animals for each treatment (PBS vs. 12 mg/kg CNS-102) by time (24, 48, 72, 96 and 168 hours) combination was estimated with PROC MIXED in SAS. Comparisons of the CNS-102 treatment groups to the pooled PBS treatment at the different times can be made, giving the results tabulated below.
The fraction of cells damaged in the kainic acid model was determined on 130 rats, each receiving one dose of CNS-102 at either 0, 1, 3, 6, 12 or 24 mg/kg. PBS was used for dosing at 0 mg/kg. The linear model of the log10 percent damage versus concentration is graphically shown FIG. 5.
After dosing, KA was stereotactically injected into the hippocampus at 72 hours to induce neuron damage. After 24 h, hippocampus tissue was collected, stained, and imaged. The scans were analyzed by Image J to calculate the fraction of cells having KA-induced damage.
The indicated compounds or vehicle control were orally dosed to Sprague-Dawley rats, and Kainic acid was injected. After dosing, KA was stereotactically injected into the hippocampus at 72 hours to induce neuron damage. After 24 h, hippocampus tissue was collected, stained, and imaged. The scans were analyzed by Image J to calculate the fraction of cells having KA-induced damage. Neurons damaged by Kainic acid (mean of hippocampus CA3 neurons damaged) were quantified.

A further test concerns RhoA. Description: Active RhoA to total RhoA in Neuro2A cells (G-LISA, ELISA). Format: cell-based, mouse. The note with it: 48 hrs treatment, ratio of active RhoA to total RhoA as percentage of DMSO treatments, concentration not given. How it is done: Mouse neuroblastoma Neuro2A cells were cultured in DMEM supplemented with 10% FBS for 24 hrs. […] Cell lysates were quantified and subjected either to active RhoA assay using G-LISA RhoA activation Assay Biochem Kit (Cytoskeleton Inc), or to total RhoA assay using Total RhoA ELISA Kit (Cytoskeleton Inc). The results were calculated as ratio of active RhoA to total RhoA and averaged from 3 biological repeats of one experiment with background subtraction. The data was presented as percentage of DMSO treatments.

Each structure is given as a SMILES string.

As to `CC(C)=CCC/C(C)=C/CC/C(C)=C/CC/C(C)=C/COC(=S)NC1CC1` [Compound 10f, Cyclopropyl 2E,6E,10E-geranylgeranyl thiocarbamate], the “unprenylated/total RAP1 (%)” value in the test with Rap1 came to 40%. Also, the “HSP70 level, ELISA signal (absence of compounds normalized as 1.00)” value with HSP70 (10uM) stood at 1.57. Also, the “Mean of Hippocampus CA3 Neurons Damaged” value in the test on Sprague Dawley rats (20 mg/kg oral) turned out to be 16%.
`CC(C)=CCC/C(C)=C/CC/C(C)=C/CC/C(C)=C/COC(=O)Nc1cc(Cl)c(Cl)c(Cl)c1` [Compound 7y, 3′,4′,5′-Trichlorophenyl 2E, 6E, 10E-geranylgeranyl carbamate]: the “% Relative RhoGTPase Activity” value with RhoA is recorded as 94.4%. For the same compound, the “unprenylated/total RAP1 (%)” value in the test on Rap1 was found to be 68%. In the test with HSP70 (10uM), the “HSP70 level, ELISA signal (absence of compounds normalized as 1.00)” value is on record as 1.13.
For `CCNC(=S)OC/C=C(\C)CC/C=C(\C)CC/C=C(\C)CCC=C(C)C` [Compound 10b, Ethyl 2E,6E,10E-geranylgeranyl thiocarbamate], the “% Relative RhoGTPase Activity” value in the test on RhoA was determined as 86.2%. Besides, the “HSP70 level, ELISA signal (absence of compounds normalized as 1.00)” value in the test with HSP70 (100 nM) was 1.06; in the test with HSP70 (10uM), 1.34.
With `COC(=O)[C@@H](NC(=O)OC(C)CC/C=C(\C)CC/C=C(\C)CCC=C(C)C)C(C)C` (stereo partly drawn) [Compound 20j, 5E,9E-farnesyl prop-2-yl Methyl 2-(S)-(−)-3-methylbutyrate Carbamate], the “% Relative RhoGTPase Activity” value in the test on RhoA is 85.9%. Besides, in the test on Rap1, the “unprenylated/total RAP1 (%)” value is 59%.
In the case of `CNC(=S)OC/C=C(\C)CC/C=C(\C)CCC=C(C)C` [Compound 43, O-((2E,6E)-3,7,11-trimethyldodeca-2,6,10-trien-1-yl) methylcarbamothioate], the “% Relative RhoGTPase Activity” value in the test with RhoA came out at 102.7%. Besides, the “HSP70 level, ELISA signal (absence of compounds normalized as 1.00)” value with HSP70 (10uM) was found to be 0.95.
In the case of `CC(C)=CCC/C(C)=C/CC/C(C)=C/CC/C(C)=C/CCC1(C)OCCO1` [Compound 105], in the test on RhoA, the “% Relative RhoGTPase Activity” value was 85.1%. Also, in the test on Rap1, the “unprenylated/total RAP1 (%)” value was 64%.
As for `COCCNC(=S)OC/C=C(\C)CC/C=C(\C)CC/C=C(\C)CCC=C(C)C` [Compound 10i, Methoxy-2′-ethyl 2E,6E,10E-geranylgeranyl thiocarbamate], the “unprenylated/total RAP1 (%)” value in the test on Rap1 amounted to 83%. Besides, the “HSP70 level, ELISA signal (absence of compounds normalized as 1.00)” value with HSP70 (100 nM) is recorded as 1.04; in the test on HSP70 (10uM) it was 1.08. Further, the “Mean of Hippocampus CA3 Neurons Damaged” value in the test with Sprague Dawley rats (2 mg/kg oral) is 22%.
In the case of `CC(C)=CCC/C(C)=C/CC/C(C)=C/CC/C(C)=C/C1=N[C@@H](CC(C)C)C(=O)O1` [Compound 37d, (S)-4-isobutyl-2-((1E,5E,9E)-2,6,10,14-tetramethylpentadeca-1,5,9,13-tetraen-1-yl)oxazol-5(4H)-one], the “unprenylated/total RAP1 (%)” value in the test on Rap1 amounted to 128%. Further, in the test with HSP70 (10uM), the “HSP70 level, ELISA signal (absence of compounds normalized as 1.00)” value is given as 1.04.
Regarding `CCC(C)NC(=O)OC/C=C(\C)CC/C=C(\C)CCC=C(C)C` (centres unmarked) [Compound 8g, Sec-Butyl 2E, 6E-farnesyl carbamate], the “% Relative RhoGTPase Activity” value with RhoA is reported as 111.3%. Also, the “HSP70 level, ELISA signal (absence of compounds normalized as 1.00)” value came to 1.17 in the test with HSP70 (10 nM) and 1.51 with HSP70 (10uM).
For `CC(C)=CCC/C(C)=C/CC/C(C)=C/CC/C(C)=C/C1=N[C@H](C(C)C)C(=O)O1` [Compound 37a, (R)-4-isopropyl-2-((1E,5E,9E)-2,6,10,14-tetramethylpentadeca-1,5,9,13-tetraen-1-yl)oxazol-5(4H)-one], the “% Relative RhoGTPase Activity” value with RhoA came to 106.8%. Also, the results for the “HSP70 level, ELISA signal (absence of compounds normalized as 1.00)” value in the test on HSP70 (100 nM) and in the test with HSP70 (10uM) were 1.04 and 1.10, respectively.
On to `COC(=O)[C@@H](NC(=O)OC/C=C(\C)CC/C=C(\C)CC/C=C(\C)CCC=C(C)C)C(C)C` [Compound 7j, Methyl 2-(S)-(−)-3-methylbutyrate 2E,6E,10E-geranylgeranyl Carbamate], for which, in the test on Rap1, the “unprenylated/total RAP1 (%)” value was 63%. Further, the “Mean of Hippocampus CA3 Neurons Damaged” value in the test on Sprague Dawley rats (1 mg/kg oral) was found to be 13%.
Turning to `CC(C)=CCC/C(C)=C/CC/C(C)=C/CC/C(C)=C/C1=N[C@@H](C)CO1` [Compound 27b, (S)-4-methyl-2-((1E,5E,9E)-2,6,10,14-tetramethylpentadeca-1,5,9,13-tetraen-1-yl)-4,5-dihydrooxazole], the “% Relative RhoGTPase Activity” value in the test with RhoA was 89.0%. For the same compound, the “HSP70 level, ELISA signal (absence of compounds normalized as 1.00)” value in the test on HSP70 (100 nM) is 1.16; in the test on HSP70 (10uM) it was 1.22.
Turning to `CC(C)=CCC/C(C)=C/CC/C(C)=C/CC/C(C)=C/COC(=S)NCCN1CCCCC1` [Compound 10l, Piperidinyl-2′-ethyl 2E,6E,10E-geranylgeranyl thiocarbamate], the “unprenylated/total RAP1 (%)” value with Rap1 is listed as 164%. The entries for the “HSP70 level, ELISA signal (absence of compounds normalized as 1.00)” value in the test on HSP70 (100 nM) and with HSP70 (10uM) were 1.16 and 1.37, respectively. The “Mean of Hippocampus CA3 Neurons Damaged” value in the test on Sprague Dawley rats (20 mg/kg oral) was determined as 14%.
Take `CCOC(=O)CCNC(=O)OC/C=C(\C)CC/C=C(\C)CCC=C(C)C` [Compound 8m, Carboethoxy-2′-ethyl 2E, 6E-farnesyl carbamate]: the “% Relative RhoGTPase Activity” value in the test with RhoA is listed as 111.4%. Besides, the “HSP70 level, ELISA signal (absence of compounds normalized as 1.00)” value in the test with HSP70 (10uM) amounted to 1.05.
With `CC(C)=CCC/C(C)=C/CC/C(C)=C/CC/C(C)=C/c1cnco1` [Compound 14, 5-((1E,5E,9E)-2,6,10,14-tetramethylpentadeca-1,5,9,13-tetraen-1-yl)oxazole], the “unprenylated/total RAP1 (%)” value in the test on Rap1 was 96%. The “HSP70 level, ELISA signal (absence of compounds normalized as 1.00)” value with HSP70 (10uM) came out at 0.96. The “Mean of Hippocampus CA3 Neurons Damaged” value with Sprague Dawley rats (2 mg/kg oral) came to 13%.
Consider `CC(C)=CCC/C(C)=C/CC/C(C)=C/CC/C(C)=C/C1=N[C@@H](C(C)C)CO1` [Compound 27a, (S)-4-isopropyl-2-((1E,5E,9E)-2,6,10,14-tetramethylpentadeca-1,5,9,13-tetraen-1-yl)-4,5-dihydrooxazole], for which, in the test on Rap1, the “unprenylated/total RAP1 (%)” value is listed as 96%. The “HSP70 level, ELISA signal (absence of compounds normalized as 1.00)” value in the test on HSP70 (100 nM) came out at 1.02. In addition, the “Mean of Hippocampus CA3 Neurons Damaged” value in the test with Sprague Dawley rats (2 mg/kg oral) is given as 11%.
`CC(C)=CCC/C(C)=C/CC/C(C)=C/COC(=O)NC1CCCCC1` [Compound 8f, Cyclohexyl 2E, 6E-farnesyl carbamate]: the “% Relative RhoGTPase Activity” value with RhoA is recorded as 104.6%. Also, in the test with HSP70 (10uM), the “HSP70 level, ELISA signal (absence of compounds normalized as 1.00)” value is 1.29.
Turning to `CCOC(=O)CNC(=S)OC/C=C(\C)CC/C=C(\C)CC/C=C(\C)CCC=C(C)C` [Compound 10d, Ethoxycarbonylmethyl 2E,6E,10E-geranylgeranyl thiocarbamate], the “unprenylated/total RAP1 (%)” value in the test on Rap1 was determined as 62%. In the test with HSP70 (10uM), the “HSP70 level, ELISA signal (absence of compounds normalized as 1.00)” value was found to be 1.36. Besides, in the test on Sprague Dawley rats (2 mg/kg oral), the “Mean of Hippocampus CA3 Neurons Damaged” value is recorded as 14%.
Consider `C=CCNC(=O)OC/C=C(\C)CC/C=C(\C)CCC=C(C)C` [Compound 8j, Allyl 2E, 6E-farnesyl carbamate], for which, in the test on RhoA, the “% Relative RhoGTPase Activity” value was determined as 105.6%. For the same compound, the “HSP70 level, ELISA signal (absence of compounds normalized as 1.00)” value with HSP70 (10 nM) is on record as 1.13; with HSP70 (10uM), 1.31.
Regarding `CCCCCCNC(=O)OC/C=C(\C)CC/C=C(\C)CC/C=C(\C)CCC=C(C)C` [Compound 7e, n-Hexyl 2E,6E,10E-geranylgeranyl carbamate], the “unprenylated/total RAP1 (%)” value in the test with Rap1 was 64%. Besides, the “Mean of Hippocampus CA3 Neurons Damaged” value in the test on Sprague Dawley rats (12 mg/kg oral) was 18%.
In the case of `CC(C)=CCC/C(C)=C/CC/C(C)=C/COC(=O)Nc1ccccc1` [Compound 8o, Phenyl 2E, 6E-farnesyl carbamate], the “% Relative RhoGTPase Activity” value with RhoA worked out at 82.1%. Moreover, in the test on HSP70 (10uM), the “HSP70 level, ELISA signal (absence of compounds normalized as 1.00)” value is on record as 0.99.
